{"source": "patent US7312358B2", "about": "“Pharmaceutically active sulfanilide derivatives” (Laboratoires Serono SA, priority 2000, dated 2007)", "key": {"hOT-R": {"target": "T1, hOT-R (Homo sapiens, UniProt P30559)", "T1 construct": "expressed in transfected cells; host or cells: HEK (Human Embryonic Kidney) cells", "T1 sequence (P30559 1-389)": "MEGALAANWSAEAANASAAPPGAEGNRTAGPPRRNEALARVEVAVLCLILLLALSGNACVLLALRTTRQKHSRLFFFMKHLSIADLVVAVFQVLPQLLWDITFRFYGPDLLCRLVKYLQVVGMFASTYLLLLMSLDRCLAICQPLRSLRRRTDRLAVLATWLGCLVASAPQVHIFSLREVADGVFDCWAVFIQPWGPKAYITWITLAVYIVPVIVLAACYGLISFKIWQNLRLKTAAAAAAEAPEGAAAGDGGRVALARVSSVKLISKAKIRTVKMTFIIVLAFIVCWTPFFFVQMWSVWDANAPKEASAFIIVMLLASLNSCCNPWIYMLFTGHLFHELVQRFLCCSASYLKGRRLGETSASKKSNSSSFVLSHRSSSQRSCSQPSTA", "experiment": "Inhibition of oxytocin mediated Ca2+-mobilization by FLIPR (HEK cells)", "type": "cell-based", "details": "fluo-4, OT 40 nM", "excerpt": "c) Functional Assay No. 1: Inhibition of Oxytocitn Mediated Ca^2+-Mobilization by FLIPR (Fluorescent Imaging Plate Reader)\n(§1) FLIPR is a machine for fluorescence imaging using a laser that is capable of illuminating a 96-well plate and a means of simultaneously reading each well thus enabling rapid measurements on a large number of samples.\nThis assay intends to show the inhibition of the OT/OT-R mediated calcium mobilisation—being necessary to cause uterine contractions—by using test compounds of formula (I).\nPreparing the plates: FLIPR-plates were pre-coated with PLL (Poly-L-Lysine) 10 μg/ml+0.1% gelatine to attach the HEK (Human Embryonic Kidney) cells for 30 min up to 2 days at 37° C. The cells were plated out into 96-well plates (60000 cells/well).\n(§2) Labelling with fluo-4: 50 kg fluo-4 (fluorescent marker) were dissolved in 20 μl pluronic acid (20% in DMSO). The dissolved fluo-4 was then diluted in 10 ml DMEM (Dubecco's Minimal Essential Medium-F12 medium without FCS (Fetal Calf Serum). The medium was removed from the plates, followed by one wash with DNEM-F12 medium. Now, 100 μl of the DMEM-F12 medium containing fluo-4 were added and the cells incubated for 1.5-2 h (HEK-cells). The cells now contain the fluorescent marker.\n(§3) Buffer: 145 mM NaCl, 5 mM KCl, 1 mM MgCl2, 10 mM Hepes, 10 mM Glucose, EGTA (Ethylene-bis oxyethylene nitrilo tetraacetic acid). Adjust to pH 7.4.\n(§4) Performance of the assay: A minimum of 80 μl/well of antagonists (5×) in the above buffer (1×) were prepared (96-well plates). The antagonists were added to the well-plates at different concentrations (30 μM, 10 μM, 1 μM, 300 nM, 100 nM, 10 nM, 1 nM, 100 pM, 10 pM).\nOT is added at a concentration of 40 nM.\n(§5) The fluorescent marker being sensitive to the amount of Ca^2+ mobilized within the cell may be quantified by the FLIPR machine.\n(§6) The activities of the sulfanilide derivatives according to formula I were assessed using the above described in vitro biological assay. The values refer to the capacity of the example compounds according to formula I to effectively antagonize oxytocin-induced intracellular Ca^2+-mobilization mediated by the oxytocin receptor."}, "ratOT-R": {"target": "T2, ratOT-R (Rattus norvegicus, UniProt P70536)", "T2 construct": "expressed in transfected cells; host or cells: HEK/EBNA cells", "T2 sequence (P70536 1-388)": "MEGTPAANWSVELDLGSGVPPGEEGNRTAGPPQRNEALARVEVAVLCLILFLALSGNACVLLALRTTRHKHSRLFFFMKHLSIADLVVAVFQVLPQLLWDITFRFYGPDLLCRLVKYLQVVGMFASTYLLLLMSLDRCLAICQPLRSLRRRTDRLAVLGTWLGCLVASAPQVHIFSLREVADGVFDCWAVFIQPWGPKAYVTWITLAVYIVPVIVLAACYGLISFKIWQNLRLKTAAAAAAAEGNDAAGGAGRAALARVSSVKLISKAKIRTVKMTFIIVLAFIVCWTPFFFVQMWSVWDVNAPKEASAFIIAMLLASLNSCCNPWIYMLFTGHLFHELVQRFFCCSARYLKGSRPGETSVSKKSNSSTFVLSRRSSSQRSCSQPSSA", "experiment": "Inhibition of IP3 (inositol tri-phosphate)-synthesis in HEK/EBNA-OTR cells", "type": "cell-based", "details": "[3H]-inositol, oxytocin 10 nM", "method": "e) Functional Assay No. 2: Inhibition of IP3 (Inositol Tri-Phosphate)-Synthesis in HEK/EBNA-OTR Cells\nThis assay intends to show the inhibition of the OT/OT-R mediated IP3 synthesis—being necessary to cause uterine contractions—by using test compounds of formula (I).\nStimulation of the cells: IIEK/EBNA OTR(rat or human) cells were plated out into costar 12-well plates, and equilibrated for 15-24 h with [^3H]-inositol radiolabel in medium without inositol supplement, with 1% FCS (0.5 ml/well). 4 μCi/ml were used. After this, the medium containing the label was aspirated. Then was added DMEM (without FCS, inositol), 20 mM Hepes (4-(2-hydroxyethyl)-1-piperazine-ethane-sulphonic acid), 1 mg/ml BSA containing 10 mM LiCl (freshly prepared), for […] at 37° C. The agonist (i.e. oxytocin used at a concentration of 10 nM) and the antagonists (i.e. the tests compounds of formula (1) used in a concentration of 10 μM, 1 μM, 300 nM, 100 nM, 10 nM, 1 nM, 100 pM, 10 pM, 3 pM) were added for the time required (15-45 min), followed by aspiration of the medium. Due to the […] of the OT receptor, the radiolabeled inositol is phosphorylated to yield IP3, the amount of the radiolabeled IP3 may be determined through the ensuing work-up. The reaction was stopped with 1 ml STOP-solution (i.e. 0.4 M perchloric acid), and let sit for 5-10 min at Room Temperature. Then, 0.8 ml were transferred into tubes containing 0.4 ml of neutralizing solution (0.72 M KOH/0.6M KHCO3), and the tubes vortexed and kept in the cold at least for 2 h.\nSeparation of IP's: The samples were spun in a table top centrifuge at 3000-4000 rpm for 15 min. 1 ml of the supernatant was transferred to new tubes containing 2.5 ml H2O. Packed resin (0.8 ml) was equilibrated with 20 ml H2O, and the whole samples poured onto the chromatography columns, thus separating the mixture. To discard free inositol, two washes with 10 ml H2O were carried out.\nElution of total IP's: The elution was achieved using 3 ml 1M ammonium formate/0.1M formic acid. The eluant was collected in scintillation counting tubes, followed by addition of 7 ml of scintillation liquid. The amount of IP3 is determined by a scintillating counter.\nas §6, with “derivatives claimed in the” for “derivatives according to”, “oxytocin-induced IP3-synthesis” for “oxytocin-induced intracellular Ca^2+-mobilization”"}, "hV1a [1]": {"target": "T3, hV1a (Homo sapiens, UniProt P37288)", "T3 sequence (P37288 whole entry)": "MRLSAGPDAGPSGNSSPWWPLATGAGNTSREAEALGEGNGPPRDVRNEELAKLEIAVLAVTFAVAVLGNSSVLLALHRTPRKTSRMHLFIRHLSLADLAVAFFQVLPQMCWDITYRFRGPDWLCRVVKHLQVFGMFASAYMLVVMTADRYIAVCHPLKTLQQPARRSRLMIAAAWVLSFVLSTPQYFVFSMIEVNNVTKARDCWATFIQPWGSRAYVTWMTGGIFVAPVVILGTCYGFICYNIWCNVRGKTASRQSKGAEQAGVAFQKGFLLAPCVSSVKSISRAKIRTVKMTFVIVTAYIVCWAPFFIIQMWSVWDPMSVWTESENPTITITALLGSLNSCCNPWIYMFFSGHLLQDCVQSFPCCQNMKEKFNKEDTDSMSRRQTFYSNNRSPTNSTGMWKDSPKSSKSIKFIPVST", "experiment": "Inhibition of vasopressin-mediated Ca2+-mobilization by FLIPR (CHO cells expressing hV1a)", "type": "cell-based", "parameters": "expressed in transfected cells; host or cells: CHO cells", "details": "fluo-4, AVP 40 nM", "excerpt": "d) Functional Assay No. 1: Inhibition of Vasopressin-Mediated Ca^2+-mobilization by FLIPR (Fluorescent Imaging Plate Reader)\nas §1\nThis assay intends to show the inhibition of the AVP/V1a-R mediated calcium mobilisation—being necessary to cause uterine contractions—by using test compounds of formula (1).\nPreparing the plates: FLIPR-plates were pre-coated with PLL (Poly-L-Lysine) 10 μg/ml+0.1% gelatine to attach the CHO cells (expessing hV1a) for 30 min up to 2 days at 37° C. The cells were plated out into 96-well plates (60000 cells/well).\nas §2, with “μg” for “kg”, “DMEM-F12” for “DNEM-F12”, “1-1.5” for “1.5-2”, “(CHO-cells).” for “(HEK-cells).”\nas §3, §4\nAVP is added at a concentration of 40 nM.\nas §5\nas §6, with “AVP-induced” for “oxytocin-induced”, “VIa-receptor.” for “oxytocin receptor.”"}, "hV1a [2]": {"target": "T3, hV1a", "experiment": "In vitro competition binding assay on hV1a receptor with scintillating proximity assay", "parameters": "expressed in transfected cells; host or cells: CHO cells (membranes)", "details": "membranes from CHO cells expressing hV1a receptor; radiolabel [125I]-LVA; SPA; read-out: Binding Affinity Human V1a Ki", "method": "b) In Vitro Competition Binding Assay on hV1a Receptor with Scintillating Proximity Assay\nThis assays allows to determine the affinity of the test compounds for the V1a receptor. Membranes from CHO cells expressing the hV1a receptor were resuspended in buffer containing 50 mM Tris-HCl, pH 7.4, 5 mM MgCl2 and 0.1% BSA (w/v). The membranes (5-10 μg) were mixed with 0.2 mg wheat-germ aglutinin (WGA) SPA bead (type A) and 0.03 nM of the radiolabel [^125I]-LVA (LVA being Linear Vasopressin Antagonist and is an analogue of AVP for competition binding experiments). Non-specific binding was determined in the presence of 1 μM AVP. The total assay volume was 100 μl. The plates (Corning 0 NBS plate) were incubated at room temperature for 2 hours and counted on a Mibrobeta plate counter. The tests compounds were used in concentrations of 30 μM, 10 μM, 1 μM, 300 nM, 100 nM, 10 nM, 1 nM, 100 pM, 10 pM. The competition binding data were analysed using the iterative, nonlinear, curve-fitting program, Graph pad “Prism”.\nThe binding affinities to the Via receptor of the sulfanilide derivatives claimed in the formula I were assessed using the above described in vitro biological assay. The values refer to the binding affinity (IC50; HM) of the example compounds according to formula I to the V1a receptor. From the values shown in Table 1 it can be derived that said test compounds according to formula I do show a significant binding to the Via receptor."}}, "data": [{"smiles": "Cc1c(Cl)cccc1NC(=O)CN(c1ccc(Br)cc1)S(=O)(=O)c1ccccc1", "note": "[2-[Benzenesulfonyl-(4-bromo-phenyl)-amino]-N-(3-chloro-2-methyl-phenyl)-acetamide]", "values": [{"measurement": "IC50", "setting": "hOT-R", "value": 353, "unit": "nM"}, {"measurement": "IC50", "setting": "ratOT-R", "value": 110, "unit": "nM"}]}, {"smiles": "Cc1c(Cl)cccc1NC(=O)CN(c1ccc(Cl)cc1)S(=O)(=O)c1ccccc1", "note": "[2-[Benzenesulfonyl-(4-chloro-phenyl)-amino]-N-(3-chloro-2-methyl-phenyl)-acetamide]", "values": [{"measurement": "IC50", "setting": "hOT-R", "value": 443, "unit": "nM"}, {"measurement": "IC50", "setting": "ratOT-R", "value": 320, "unit": "nM"}]}, {"smiles": "COc1ccc(N(CC(=O)Nc2ccc(Cl)cc2C)S(=O)(=O)c2ccccc2)cc1", "note": "[2-[Benzenesulfonyl-(4-methoxy-phenyl)-amino]-N-(4-chloro-2-methyl-phenyl)-acetamide]", "values": [{"measurement": "IC50", "setting": "hV1a [1]", "value": 90, "unit": "nM"}]}, {"smiles": "COc1ccc(S(=O)(=O)N(CC(=O)N/N=C/c2ccccc2O)c2ccc(Cl)cc2)cc1OC", "note": "[Example 37, N-(4-chlorophenyl)-N-{2-[(2E)-2-(2-hydroxybenzylidene)hydrazino]-2-oxoethyl}-3,4-dimethoxybenzenesulfonamide]", "values": [{"measurement": "melting point", "value": "188 to 189", "unit": "°C"}, {"measurement": "Ki", "setting": "hV1a [2]", "value": 550, "unit": "nM"}]}, {"smiles": "COc1ccc(/C=N/NC(=O)CN(c2cccc(Br)c2)S(=O)(=O)c2ccccc2)cc1OC", "note": "[N-(3-Bromo-phenyl)-N-(3,4-dimethoxy-benzylidene-hydrazinocarbonylmethyl)-benzenesulfonamide]", "values": [{"measurement": "IC50", "setting": "hV1a [1]", "value": 440, "unit": "nM"}]}, {"smiles": "COc1ccc(/C=N/NC(=O)CN(c2cccc(Cl)c2)S(=O)(=O)c2ccccc2)cc1OC", "note": "[N-(3-Chloro-phenyl)-N-(3,4-dimethoxy-benzylidene-hydrazinocarbonylmethyl)-benzenesulfonamide]", "values": [{"measurement": "IC50", "setting": "hV1a [1]", "value": 550, "unit": "nM"}]}, {"smiles": "C/C(=N/NC(=O)CN(c1cccc(Cl)c1)S(=O)(=O)c1ccccc1)c1ccccc1O", "note": "[N-(3-Chloro-phenyl)-N-[1-(2-hydroxy-phenyl)-ethylidene-hydrazinocarbonylmethyl]-benzenesulfonamide]", "values": [{"measurement": "IC50", "setting": "hV1a [1]", "value": 370, "unit": "nM"}]}, {"smiles": "O=C(CN(c1ccccc1)S(=O)(=O)c1ccccc1)N/N=C1\\C(=O)Nc2ccccc21", "note": "[N-{2-oxo-2-[2-(2-oxo-1,2-dihydro-3H-indol-3-ylidene)hydrazino]ethyl}-N-phenylbenzenesulfonamide]", "values": [{"measurement": "IC50", "setting": "ratOT-R", "value": 300, "unit": "nM"}]}, {"smiles": "C/C(=N\\NC(=O)CN(c1ccc(Br)cc1)S(=O)(=O)c1ccccc1)c1ccccc1O", "note": "[drawing 168, N-(4-bromophenyl)-N-(2-{2-[1-(2-hydroxyphenyl)ethylidene]hydrazino}-2-oxoethyl)benzenesulfonamide]", "values": [{"measurement": "IC50", "setting": "ratOT-R", "value": 48, "unit": "nM"}]}]}
